According to patent publication US9051326B2, “Pyrazoline derivatives and their use as selective androgen receptor modulators” (NOVARTIS AG, priority 2011, dated 2015):
Read-outs that look alike come from different tables or passages of the source.

Experiments:
androgen receptor (AR) = target: T1, androgen receptor (AR) (Homo sapiens, UniProt P10275); assay: AR transcriptional activation luciferase reporter assay in C2C12 cells (Test 1); type: cell-based
T1 construct: transfecting C2C12 cells with a plasmid containing full-length AR along with an AR response element linked to luciferase; expressed in transfected cells; host or cells: mouse myoblastic C2C12 cells (ATCC CRL-1772), transient transfection with Lipofectamine 2000
T1 sequence (P10275 1-920): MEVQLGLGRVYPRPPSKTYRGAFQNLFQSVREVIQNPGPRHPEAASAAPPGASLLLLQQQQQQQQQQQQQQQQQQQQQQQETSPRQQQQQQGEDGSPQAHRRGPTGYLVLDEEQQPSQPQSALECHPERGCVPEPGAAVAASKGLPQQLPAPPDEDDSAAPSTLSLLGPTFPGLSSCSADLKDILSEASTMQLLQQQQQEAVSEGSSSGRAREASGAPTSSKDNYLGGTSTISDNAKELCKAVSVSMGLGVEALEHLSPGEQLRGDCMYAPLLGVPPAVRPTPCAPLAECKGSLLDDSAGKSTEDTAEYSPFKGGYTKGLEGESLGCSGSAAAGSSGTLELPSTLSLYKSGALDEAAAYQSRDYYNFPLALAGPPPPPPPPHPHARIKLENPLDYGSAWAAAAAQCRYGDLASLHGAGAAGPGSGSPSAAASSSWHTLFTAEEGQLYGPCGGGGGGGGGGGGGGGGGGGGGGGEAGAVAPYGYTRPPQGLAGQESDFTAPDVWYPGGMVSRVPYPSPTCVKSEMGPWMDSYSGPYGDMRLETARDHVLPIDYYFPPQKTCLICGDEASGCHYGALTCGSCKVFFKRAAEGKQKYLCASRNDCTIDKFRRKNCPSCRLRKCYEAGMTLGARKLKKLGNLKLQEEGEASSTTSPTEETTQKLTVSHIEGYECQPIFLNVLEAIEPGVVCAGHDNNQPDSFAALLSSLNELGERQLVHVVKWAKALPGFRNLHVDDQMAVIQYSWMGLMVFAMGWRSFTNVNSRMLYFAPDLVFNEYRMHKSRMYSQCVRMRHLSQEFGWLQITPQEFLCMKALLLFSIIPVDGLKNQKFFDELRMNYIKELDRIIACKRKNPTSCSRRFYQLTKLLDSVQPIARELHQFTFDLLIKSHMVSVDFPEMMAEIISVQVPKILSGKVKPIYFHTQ
Experimental: A suitable assay to determine the ability of a ligand to transcriptionally activate androgen receptor (AR) is carried out using mouse myoblastic C2C12 cells. The assay involves transfecting C2C12 cells with a plasmid containing full-length AR along with an AR response element linked to luciferase (2XIDR17). The luminescence read-out at the end of the assay is measured using Victor 3 and is a direct measure of the transcriptional activity. The assay has been validated using the reference compound, BMS-564929, for which EC50 values have been reported in a similar set-up. Other tool compounds that have been used for assay validation are GSK-420A, Andarine, putative Ostarine, and LGD-2226.
C2C12 cells were obtained from ATCC (Cat # CRL-1772) and maintained in DMEM modified to contain 4 mM L-glutamine, 4.5 g/L glucose, 1 mM sodium pyruvate and 1.5 g/L sodium bicarbonate and 10% FBS.
AR-FL in pcDNA 3.1(+) and 2XIDR17 in pGL4.26 plasmids prepared using Genelute plasmid miniprep kit from Sigma Cat # PLED35
• C2C12 cells were seeded in a 96-well plate in DMEM (Dulbecco's Modified Eagle Medium) without phenol red and containing 10% CS-FBS (Charcoal-stripped Fetal Bovine Serum) at 8000 cells/well. • The next day, cells were transfected with an equimolar ratio of (Androgen Receptor-Full length) AR-FL and 2XIDR17-Luciferase at a total plasmid concentration of 200 ng/well using Lipofectamine 2000 following manufacturer's protocol. • For the transfection, 83 ng of AR-FL and 117 ng of 2XIDR17-Luciferase were in 12.5 μl of OptiMEM—Mix A. 0.4 μl of Lipofectamine 2000 was added to 12.5 μl of OptiMEM and incubated for 5 min at room temperature—Mix B. The two mixes A and B were mixed and incubated at room temperature for an additional fifteen minutes. An additional 50 μl of OptiMEM was added, gently mixed and this mixture was added to the cells in the 96-well plate. The above quantities are requirements per well of a 96-well plate. Master mixes were made for the entire plate, with proportional quantity of reagents being used. • 5 h after transfection, compounds were added to the wells in DMEM without phenol red and containing 10% CS-FBS, maintaining a final DMSO concentration of 0.5%. A typical dose response curve starts at 10 μM and includes a 7-point, log dilution, done in triplicates. • After overnight incubation with the compounds, 100 ul of working solution of Steadyglow reagent was added to the wells. • The plates were placed in a shaker for 15 min at the end of which the lysate containing luciferase was transferred to a white flat-bottom plate and read under a luminescence setting in Victor. • Background subtracted counts (Luminescence from DMSO control wells is considered the background) are used to calculate percentage activity, expressed relative to activity with 1 μM (Dihydrotestosterone) DHT (at least two sets of triplicates for 1 μM DHT are included per plate). Data Fitting: • The EC50 curves for the compounds for 8 compound concentrations were fitted by the respective function using non-linear least-squares regression in Graphpad Prism 4.0 (Graphpad Software, San Diego, Calif., USA).

[1] = system: orchidectomized male Wistar rats; assay: In vivo modified Hershberger assay (Test 2); set-up: species or system rat; settings: for luteinizing hormone (LH) levels / weights of levator ani compared to prostate: 14 days treatment; for luteinizing hormone (LH) levels: in comparison to ORX animals; for plasma drug concentration: day 15, 3 hours after last dose; for weights of levator ani compared to prostate: orchidectomized male rats
Experimental: The test article Testosterone Propionate is dissolved using 10% ethanol, 90% corn oil. Ostarine is suspended in 1% CMC, 0.1% Tween-80, water. Compounds of examples 1 and 5 are dissolved in 50% PEG 200 and 50% of saline. Ostarine is administered orally at 1 ml/kg volume. Testosterone Propionate, Compounds of examples 1 and 5 are administered subcutaneously to 14 days prior orchidectomized male rats at 1 ml per kg body weight for a period of 14 days. Each group of 6 rats receives dosages of 0.01, 0.1, 1 and 10 mg/kg. 6 animals each serves as sham control and ORX control and are administered vehicle at 1 ml/kg.
Testosterone Propionate is subcutaneously administered at doses of 0.03, 0.1, 0.3, 1.3 and 10 mg/kg. Ostarine is given orally at doses of 0.001, 0.003, 0.01, 0.03, 0.1, 0.3, 1.3 and 10 mg/kg.
The various investigations like mortality, clinical signs, body weight, food consumption, drug concentration analysis (day 15), clinical pathology and gross pathology parameters are performed on all groups.
Evaluation of Testosterone Propionate, Ostarine, examples 1 and 5 in modified Hershberger assay in male wistar rats was conducted at the Department of Preclinical Biology, Aurigene Discovery Technologies Ltd., Bangalore, India.

| Compound | weights of levator ani compared to prostate [1] | EC50 (androgen receptor (AR)) | also measured |
| --- | --- | --- | --- |
| CO[C@@H]1C(c2ccc(C#N)c(Cl)c2C)=NN2CC[C@H](O)[C@@H]12 [Example 1, 2-chloro-4-((3S,3aS,4S)-4-hydroxy-3-methoxy-3a,4,5,6-tetrahydro-3H-pyrrolo[1,2-b]pyrazol-2-yl)-3-methylbenzonitrile] | dose dependent selective increase in weights of levator ani compared to prostate |  | EC50 (androgen receptor (AR); mouse myoblastic C2C12 cells transfected with AR-FL and 2XIDR17-luciferase, read-out: Biological activity (C2C12 cell) EC50): 0.5 nM; luteinizing hormone (LH) levels [1]: concurrent decrease of LH levels; plasma drug concentration [1]: dose dependent increase |
| CCO[C@@H]1C(c2ccc(C#N)c(Cl)c2C)=NN2CC[C@H](O)[C@@H]12 [Example 5, 2-chloro-4-((3S,3aS,4S)-3-ethoxy-4-hydroxy-3a,4,5,6-tetrahydro-3H-pyrrolo[1,2-b]pyrazol-2-yl)-3-methylbenzonitrile] | dose dependent selective increase in weights of levator ani compared to prostate | 1.2 nM | luteinizing hormone (LH) levels [1]: concurrent decrease of LH levels; plasma drug concentration [1]: dose dependent increase |
| Cc1c(C2=NN3CC[C@@H](F)[C@H]3[C@@H]2OCCF)ccc(C#N)c1Cl [Example 23, 2-chloro-4-((3S,3aR,4R)-4-fluoro-3-(2-fluoroethoxy)-3a,4,5,6-tetrahydro-3H-pyrrolo[1,2-b]pyrazol-2-yl)-3-methylbenzonitrile] |  | 0.41 nM |  |
| COCCO[C@@H]1C(c2ccc(C#N)c(Cl)c2C)=NN2CC(F)(F)C[C@@H]12 [Example 24, 2-chloro-4-((3S,3aS)-5,5-difluoro-3-(2-methoxyethoxy)-3a,4,5,6-tetrahydro-3H-pyrrolo[1,2-b]pyrazol-2-yl)-3-methylbenzonitrile] |  | 5.6 nM |  |
| CO[C@@H]1C(c2ccc(C#N)c(Cl)c2C)=NN2C[C@H](O)[C@H](O)[C@@H]12 [Example 25, 2-chloro-4-((3S,3aS,4R,5S)-4,5-dihydroxy-3-methoxy-3a,4,5,6-tetrahydro-3H-pyrrolo[1,2-b]pyrazol-2-yl)-3-methylbenzonitrile] |  | 51.2 nM |  |
| COCCO[C@@H]1C(c2ccc(C#N)c(Cl)c2C)=NN2C[C@H](O)C[C@@H]12 [Example 26] |  | 158 nM |  |
| COCCO[C@@H]1C(c2ccc(C#N)c(Cl)c2C)=NN2C[C@@H](F)C[C@@H]12 [Example 27] |  | 65.8 nM |  |
| COCCO[C@@H]1C(c2ccc(C#N)c(Cl)c2C)=NN2CC(=O)C[C@@H]12 [Example 28] |  | 175 nM |  |
| COCCCO[C@@H]1C(c2ccc(C#N)c(Cl)c2C)=NN2C[C@H](O)C[C@@H]12 [Example 29] |  | 40 nM |  |
| COCCCO[C@@H]1C(c2ccc(C#N)c(Cl)c2C)=NN2CC(=O)C[C@@H]12 [Example 30] |  | 56 nM |  |
| COCCCO[C@@H]1C(c2ccc(C#N)c(Cl)c2C)=NN2CC(F)(F)C[C@@H]12 [Example 31] |  | 11.4 nM |  |
| C[C@](O)(COc1ccc(C#N)cc1)C(=O)Nc1ccc(C#N)c(C(F)(F)F)c1 [Ostarine, reference compound] | dose dependent selective increase in weights of levator ani compared to prostate |  | luteinizing hormone (LH) levels [1]: concurrent decrease of LH levels; plasma drug concentration [1]: dose dependent increase |
| CCC(=O)O[C@H]1CC[C@H]2[C@@H]3CCC4=CC(=O)CC[C@]4(C)[C@H]3CC[C@]12C [Testosterone Propionate, reference compound] | did not show any selectivity on levator ani versus prostate |  |  |
